Assay results reported in publication PMC5062470, “The mGluR2 positive allosteric modulator, SAR218645, improves memory and attention deficits in translational models of cognitive symptoms associated with schizophrenia” (Scientific Reports, 2016).

Key:
human mGluR1 = biological target: T1, human mGluR1 (Homo sapiens, UniProt Q13255); assay: Multispan Allosteric Profiling panel, Ca2+ (Gqi5); type: cell-based
T1 construct: host or cells: HEK293 co-expressing Gqi5

human mGluR3 = biological target: T2, human mGluR3 (Homo sapiens, UniProt Q14832); assay: Multispan Allosteric Profiling panel, Ca2+ (Gqi5); type: cell-based
T2 construct: host or cells: HEK293 co-expressing Gqi5
T2 sequence (Q14832 23-879): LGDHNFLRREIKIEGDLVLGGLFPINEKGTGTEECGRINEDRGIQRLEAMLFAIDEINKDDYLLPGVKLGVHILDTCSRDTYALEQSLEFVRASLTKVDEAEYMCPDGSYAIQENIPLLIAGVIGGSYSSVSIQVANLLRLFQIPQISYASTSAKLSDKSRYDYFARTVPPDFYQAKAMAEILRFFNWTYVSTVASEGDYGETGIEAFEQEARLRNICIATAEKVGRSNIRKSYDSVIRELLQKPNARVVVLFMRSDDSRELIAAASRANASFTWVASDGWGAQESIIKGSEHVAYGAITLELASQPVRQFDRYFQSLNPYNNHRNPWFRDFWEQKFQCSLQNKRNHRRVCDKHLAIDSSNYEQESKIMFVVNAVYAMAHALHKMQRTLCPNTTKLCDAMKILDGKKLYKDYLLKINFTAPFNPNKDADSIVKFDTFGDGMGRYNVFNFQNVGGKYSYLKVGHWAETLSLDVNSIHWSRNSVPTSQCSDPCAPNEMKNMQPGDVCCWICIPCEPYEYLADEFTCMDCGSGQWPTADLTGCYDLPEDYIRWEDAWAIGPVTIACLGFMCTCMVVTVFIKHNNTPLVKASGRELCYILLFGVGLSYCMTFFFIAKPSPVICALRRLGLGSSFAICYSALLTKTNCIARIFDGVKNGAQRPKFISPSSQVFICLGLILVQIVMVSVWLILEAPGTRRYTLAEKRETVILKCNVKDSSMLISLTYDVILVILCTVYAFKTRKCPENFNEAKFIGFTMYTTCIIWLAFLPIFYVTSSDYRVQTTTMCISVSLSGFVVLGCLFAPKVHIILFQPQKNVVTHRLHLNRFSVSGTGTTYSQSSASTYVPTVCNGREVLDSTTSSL

human mGluR7 = biological target: T3, human mGluR7 (Homo sapiens, UniProt Q14831); assay: Multispan Allosteric Profiling panel, Ca2+ (Gqi5); type: cell-based
T3 construct: host or cells: HEK293 co-expressing Gqi5
T3 sequence (Q14831 35-915): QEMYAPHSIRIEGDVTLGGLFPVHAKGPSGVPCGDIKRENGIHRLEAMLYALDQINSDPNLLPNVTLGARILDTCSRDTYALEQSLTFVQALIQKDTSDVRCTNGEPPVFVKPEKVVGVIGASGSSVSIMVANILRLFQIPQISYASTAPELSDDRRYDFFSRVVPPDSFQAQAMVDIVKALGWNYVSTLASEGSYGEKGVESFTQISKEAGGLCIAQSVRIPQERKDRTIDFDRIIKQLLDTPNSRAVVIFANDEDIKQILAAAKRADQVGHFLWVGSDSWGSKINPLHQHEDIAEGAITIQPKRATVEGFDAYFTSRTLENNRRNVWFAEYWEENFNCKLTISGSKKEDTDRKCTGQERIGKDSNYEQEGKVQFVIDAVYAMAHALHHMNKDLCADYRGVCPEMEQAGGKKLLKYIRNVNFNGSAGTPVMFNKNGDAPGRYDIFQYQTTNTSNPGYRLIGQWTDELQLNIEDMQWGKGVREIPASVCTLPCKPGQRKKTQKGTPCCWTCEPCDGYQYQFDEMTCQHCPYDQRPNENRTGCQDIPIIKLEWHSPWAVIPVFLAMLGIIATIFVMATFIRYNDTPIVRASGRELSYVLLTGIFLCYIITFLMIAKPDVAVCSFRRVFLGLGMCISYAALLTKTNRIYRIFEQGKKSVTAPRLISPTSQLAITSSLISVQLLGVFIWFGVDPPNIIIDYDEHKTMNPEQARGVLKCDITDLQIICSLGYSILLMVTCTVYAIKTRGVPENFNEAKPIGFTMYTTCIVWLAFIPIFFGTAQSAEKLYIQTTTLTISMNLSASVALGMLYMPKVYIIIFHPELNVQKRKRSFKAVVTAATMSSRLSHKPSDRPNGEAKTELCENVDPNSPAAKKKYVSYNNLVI

[1] = test system: approximately 180 different receptors, ion channels, enzymes, transporters and kinases; assay: In vitro selectivity profile (CEREP and internal panels); type: binding; details: up to 10 μM
Experimental: The effect of SAR218645 on approximately 180 different receptors, ion channels, enzymes, transporters and kinases (see Supplementary Material Table S1) was evaluated at a contract research organization (CEREP, Celle L’Evescault, France) using established protocols or through internal studies.

[2] = Plasma exposure and brain penetration after single oral dose; type: in vivo, mice; details: male; for AUC(0-inf) / AUC(0-t): CD-1, mouse; for AUC(0-t): tlast 8 h; for Cmax: mouse, CD-1 mice
Experimental: Plasma and brain exposures of SAR218645 in male CD-1 mice (25–30 g at arrival) were measured after single oral doses of 1, 3 and 10 mg/kg. Mouse plasma samples (25.0 μl) were transferred into micro-centrifuge tubes (1.7 ml) and mixed with 50 μl of Internal Standard solution (500 ng/ml in acetonitrile). The tubes were vortex mixed for 1 min and centrifuged at 10,000 g for 5 min. An aliquot of the supernatant (50 μl) was transferred into an autosampler vial and mixed with 100 μl of water for LC/MS/MS analysis. Each mouse brain was first homogenized with 3.0 ml of 25% acetonitrile in water. The tissue homogenates (50.0 μl) were transferred into micro-centrifuge tubes (1.7 ml) and mixed with 100 μl of Internal Standard solution (500 ng/ml of A000597492 in acetonitrile). The tubes were vortex mixed for 1 min and centrifuged at 10,000 g for 5 min. An aliquot of the supernatant (50 μl) was transferred into an autosampler vial and mixed with 100 μl of water for LC/MS/MS analysis. The lower limits of quantitation (LLOQ) for SAR218645 were 0.500 ng/ml for plasma and 0.100 ng/ml for brain homogenate. The calibration curves were linear in the above prepared concentration ranges. The LLOQ for brain tissue was estimated to be approximately 0.80 ng/g. The pharmacokinetic parameters were calculated from the arithmetic mean of the group sample concentrations using the program WinNonLin 5.2., non-compartment model 200 for the extravascular routes.

Sprague-Dawley rats = assay: DOI-induced glutamate release in the medial prefrontal cortex (microdialysis); type: in vivo
Experimental: Male Sprague-Dawley rats (320–350 g) were housed two per cage. Two days before the dialysis assay, they were anesthetized with chloral hydrate (400 mg/kg, ip, 10 ml/kg of body weight) and placed in a stereotaxic apparatus (David Kopf Instruments, Tujunga, CA, USA). Anesthesia was maintained throughout surgery as necessary with supplementary doses of chloral hydrate. Body temperature was monitored by a rectal probe and adjusted (37 ± 1 °C) by a homeothermic blanket. The skull and the dura were opened to allow the implantation of a guide cannula in the medial prefrontal cortex (PFC). The coordinates were […] to bregma, […] to the midline and […] the dural surface. A dental cement cap held the cannula in place, and three screws anchored the cap to the skull. The rats were individually housed post-surgery and allowed two days of recovery before the start of the experiment. On the day of the experiment, animals were placed in a microdialysis bowl, the cannula cap was removed, and a […] (CMA12, Carnegie Medicine AB, Stockholm, Sweden) was inserted into the guide cannula. The probe was perfused at a constant flow rate of 1 μl/min using a microinjection pump (CMA100; Carnegie Medicine AB) with a gassed Ringer’s solution containing (in mM): NaCl (145), KCl (2.7), CaCl2 (1.2), MgCl2 (1), Na2HPO4 (2.3), […]; pH 7.4. Microdialysis sampling started 120 min after probe placement into the PFC. The outlet of the probe was connected to an on-line derivatization system allowing direct analysis of dialysate samples collected every 15 min. […] CE experiments were performed on a P/ACE MDQ capillary electrophoresis system (Beckman Coulter, Villepinte, France) coupled to an external Zetalif fluorescence detector (Picometrics S.A., Toulouse, France). […] The emission intensity was measured at a wavelength of 490 nm. […] Dose-effect of SAR218645 was evaluated by comparing the area under the curve during the first 150 min after po injection of the drug or vehicle. […]

rat mGluR2 = rat mGluR2 (Rattus norvegicus, UniProt P31421); assay: [3H]LY341495 binding to membranes; set-up: expressed in transfected cells; host or cells: inducible HEK-293 cell line (membranes); details: 10 μM SAR218645
Chain of rat mGluR2 (P31421 19-872): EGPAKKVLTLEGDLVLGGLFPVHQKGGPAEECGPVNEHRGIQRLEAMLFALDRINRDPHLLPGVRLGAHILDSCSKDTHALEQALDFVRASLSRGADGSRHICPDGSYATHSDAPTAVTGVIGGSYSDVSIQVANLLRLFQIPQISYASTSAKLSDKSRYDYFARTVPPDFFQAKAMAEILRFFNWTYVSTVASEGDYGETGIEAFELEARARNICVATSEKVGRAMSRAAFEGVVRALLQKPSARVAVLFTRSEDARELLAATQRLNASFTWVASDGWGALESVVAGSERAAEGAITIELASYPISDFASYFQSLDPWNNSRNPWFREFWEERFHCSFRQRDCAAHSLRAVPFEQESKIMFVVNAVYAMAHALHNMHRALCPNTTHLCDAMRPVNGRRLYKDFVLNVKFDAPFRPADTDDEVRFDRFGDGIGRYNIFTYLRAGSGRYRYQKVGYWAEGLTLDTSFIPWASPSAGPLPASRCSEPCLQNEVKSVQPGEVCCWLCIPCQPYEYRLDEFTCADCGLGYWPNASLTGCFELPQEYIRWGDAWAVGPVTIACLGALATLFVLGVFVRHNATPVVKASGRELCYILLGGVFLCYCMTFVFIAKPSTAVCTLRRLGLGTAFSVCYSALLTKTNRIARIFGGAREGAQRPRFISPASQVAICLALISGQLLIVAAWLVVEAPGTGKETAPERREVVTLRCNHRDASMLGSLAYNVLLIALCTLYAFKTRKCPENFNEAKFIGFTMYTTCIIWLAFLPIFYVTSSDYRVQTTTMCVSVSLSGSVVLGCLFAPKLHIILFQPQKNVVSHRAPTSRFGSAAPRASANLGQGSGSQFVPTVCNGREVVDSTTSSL
Experimental: Binding assay was adapted from Johnson et al.[29]. […] Addition of 5–10 μg membrane protein initiated the incubation. After 45 min at room temperature, the incubation was terminated by rapid filtration followed by scintillation counting. Ki’s were calculated using 4-parameter curve fitting.

T1 sequence (Q13255 19-1194): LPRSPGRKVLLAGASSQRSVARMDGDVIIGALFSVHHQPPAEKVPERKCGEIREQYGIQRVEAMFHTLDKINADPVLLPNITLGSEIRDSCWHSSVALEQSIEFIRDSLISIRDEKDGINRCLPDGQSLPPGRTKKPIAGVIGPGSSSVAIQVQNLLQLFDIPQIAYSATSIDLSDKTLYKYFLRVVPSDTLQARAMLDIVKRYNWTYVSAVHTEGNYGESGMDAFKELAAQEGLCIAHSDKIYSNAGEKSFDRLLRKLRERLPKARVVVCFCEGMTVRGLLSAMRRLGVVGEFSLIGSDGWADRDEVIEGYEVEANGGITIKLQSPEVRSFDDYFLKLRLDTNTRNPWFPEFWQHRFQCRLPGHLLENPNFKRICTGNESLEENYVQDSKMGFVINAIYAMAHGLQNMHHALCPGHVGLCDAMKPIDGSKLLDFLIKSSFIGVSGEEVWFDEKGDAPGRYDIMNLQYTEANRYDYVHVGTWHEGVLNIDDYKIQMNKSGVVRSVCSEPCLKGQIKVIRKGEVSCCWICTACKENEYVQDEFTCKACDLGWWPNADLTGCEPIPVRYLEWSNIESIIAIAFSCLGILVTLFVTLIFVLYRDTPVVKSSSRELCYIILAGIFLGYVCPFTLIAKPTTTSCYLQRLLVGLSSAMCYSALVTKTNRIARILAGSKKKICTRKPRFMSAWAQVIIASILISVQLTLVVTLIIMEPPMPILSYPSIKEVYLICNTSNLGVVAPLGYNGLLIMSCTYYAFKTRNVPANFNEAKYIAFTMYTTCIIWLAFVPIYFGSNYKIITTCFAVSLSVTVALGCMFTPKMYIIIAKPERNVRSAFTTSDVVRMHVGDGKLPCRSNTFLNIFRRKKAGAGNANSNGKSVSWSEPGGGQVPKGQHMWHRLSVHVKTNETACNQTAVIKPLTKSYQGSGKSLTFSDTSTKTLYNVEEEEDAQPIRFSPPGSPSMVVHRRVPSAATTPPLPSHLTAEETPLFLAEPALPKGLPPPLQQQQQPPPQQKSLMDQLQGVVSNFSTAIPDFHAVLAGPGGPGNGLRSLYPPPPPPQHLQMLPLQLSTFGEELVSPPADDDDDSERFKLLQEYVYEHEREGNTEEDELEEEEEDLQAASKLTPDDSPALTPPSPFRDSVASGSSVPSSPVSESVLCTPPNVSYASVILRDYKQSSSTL

**Q.** With `CC1(C)CCc2cc(OC[C@@H]3Cn4ccc(=O)nc4O3)ccc21` [SAR218645, (S)-2-(1,1-dimethyl-indan-5-yloxymethyl)-2,3-dihydro-oxazolo[3,2-a]pyrimidin-7-one] as the compound, how does the “effect on glutamate-induced activation” value (human mGluR1; 10 μM SAR218645) read?
**A.** no effect

**Q.** What about the “calcium response to compound alone” value (human mGluR1; SAR218645 alone) of the same compound?
**A.** did not elicit a calcium response

**Q.** What about the “effect on glutamate-induced increases in intracellular calcium” value (human mGluR3; 10 μM SAR218645) of the same compound?
**A.** no effect

**Q.** What about the “calcium response to compound alone” value (human mGluR3; SAR218645 alone) of the same compound?
**A.** did not elicit a calcium response

**Q.** And the “effect on glutamate-induced activation” value (human mGluR7; 10 μM SAR218645)?
**A.** no effect

**Q.** What about the “calcium response to compound alone” value (human mGluR7; SAR218645 alone) of the same compound?
**A.** did not elicit a calcium response

**Q.** And the “inhibition of radioligand binding, panel” value [1]?
**A.** no interaction

**Q.** What about the AUC(0-inf) ([2]; plasma, 1 mg/kg oral) of the same compound?
**A.** 0.23 µg·h/mL

**Q.** And the AUC(0-t) ([2]; plasma, 1 mg/kg oral)?
**A.** 0.23 µg·h/mL

**Q.** And the AUC(0-inf) ([2]; plasma, 3 mg/kg oral)?
**A.** 0.54 µg·h/mL

**Q.** What about the AUC(0-t) ([2]; plasma, 3 mg/kg oral) of the same compound?
**A.** 0.54 µg·h/mL

**Q.** And the AUC(0-inf) ([2]; plasma, 10 mg/kg oral)?
**A.** 2.4 µg·h/mL

**Q.** What about the AUC(0-t) ([2]; plasma, 10 mg/kg oral) of the same compound?
**A.** 2.3 µg·h/mL

**Q.** And the Cmax ([2]; brain, 1 mg/kg oral)?
**A.** 32 ng/g

**Q.** And the Cmax ([2]; brain, 3 mg/kg oral)?
**A.** 103 ng/g

**Q.** And the Cmax ([2]; brain, 10 mg/kg oral)?
**A.** 339 ng/g

**Q.** And the Cmax ([2]; plasma, 1 mg/kg oral)?
**A.** 0.131 µg/mL

**Q.** What about the Cmax ([2]; plasma, 3 mg/kg oral) of the same compound?
**A.** 0.434 µg/mL

**Q.** And the Cmax ([2]; plasma, 10 mg/kg oral)?
**A.** 1.08 µg/mL

**Q.** What about the “effect on DOI-induced increase in extracellular glutamate (time-course)” value (Sprague-Dawley rats; 3 mg/kg po, 30 min before DOI 2.5 mg/kg sc) of the same compound?
**A.** blocked significantly

**Q.** And the “effect on glutamate AUC during 150 min” value (Sprague-Dawley rats; 30 mg/kg po, P < 0.05)?
**A.** reaching statistical significance

**Q.** And the Minimal active dose (Sprague-Dawley rats; dose-range 0.3–30, po, Sprague-Dawley rats)?
**A.** 3 mg/kg

**Q.** And the “inhibition of [3H]LY341495 binding by compound alone” value (rat mGluR2)?
**A.** not inhibited

**Q.** And the “lowering of the Ki of glutamate” value (rat mGluR2)?
**A.** 3.5 fold

**Q.** What about the “maximal binding, glutamate in the presence of SAR218645” value (rat mGluR2; Fig. 5B) of the same compound?
**A.** 90%
